Experiment [1] has as its target T1, rat CB2 receptors (Rattus norvegicus, UniProt Q9QZN9).
T1 construct: expressed in transfected cells; membrane preparation
T1 sequence (Q9QZN9 1-360): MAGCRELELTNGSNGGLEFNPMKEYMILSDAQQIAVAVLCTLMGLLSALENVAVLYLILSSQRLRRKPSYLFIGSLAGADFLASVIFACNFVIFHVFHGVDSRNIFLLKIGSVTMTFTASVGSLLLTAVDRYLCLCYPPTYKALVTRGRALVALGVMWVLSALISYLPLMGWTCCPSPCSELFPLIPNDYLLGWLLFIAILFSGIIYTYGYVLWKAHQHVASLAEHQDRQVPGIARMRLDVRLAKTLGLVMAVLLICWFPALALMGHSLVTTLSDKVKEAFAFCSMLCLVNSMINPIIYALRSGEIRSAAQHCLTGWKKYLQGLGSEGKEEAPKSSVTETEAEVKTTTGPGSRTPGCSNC
Put plainly: rat CB2 radioligand binding assay. The method, then: (§1) (i) In Vitro Methods—CB2 and CB1 Radioligand Binding Assays:
(§2) The CB1 and CB2 radioligand binding assays described herein are utilized to ascertain the selectivity of compounds of the present application for binding to CB2 relative to CB1 receptors.
(§3) HEK293 cells stably expressing rat CB2 receptors were grown until a confluent monolayer was formed. Briefly, the cells were harvested and homogenized in TE buffer (50 mM Tris-HCl, 1 mM MgCl2, and 1 mM EDTA) using a polytron for 2×10 second bursts in the presence of protease inhibitors, followed by centrifugation at 45,000×g for 20 minutes. The final membrane pellet was re-homogenized in storage buffer (50 mM Tris-HCl, 1 mM MgCl2, and 1 mM EDTA and 10% sucrose) and frozen at −78° C. until used. Saturation binding reactions were initiated by the addition of membrane preparation (protein concentration of 20 μg/well for rat CB2) into wells of a deep well plate containing [^3H]CP-55,940 (120 Ci/mmol, a nonselective CB agonist commercially available from Tocris) in assay buffer (50 mM Tris, 2.5 mM EDTA, 5 mM MgCl2, and 0.5 mg/mL fatty acid free BSA, pH 7.4). After 45 min incubation at 30° C., binding reaction was terminated by the addition of 300 μL/well of cold assay buffer followed by rapid vacuum filtration through a UniFilter-96 GF/C filter plates (pre-soaked in 1 mg/mL BSA for 2 hours). The bound activity was counted in a TopCount using Microscint-20. Saturation experiments were conducted with twelve concentrations of [^3H]CP-55,940 ranging from 0.01 to 8 nM. Competition experiments were conducted with 0.5 nM [^3H]CP-55,940 and five concentrations of displacing ligands selected from the range of 0.01 nM to 10 μM. The addition of 10 μM unlabeled CP-55,940 (Tocris, Ellisville, Mo.) was used to assess nonspecific binding.

Experiment [2] addresses T2, human CB2 receptors (Homo sapiens, UniProt P34972).
T2 construct: expressed in transfected cells; membrane preparation
Put plainly: human CB2 radioligand binding assay. The method, then:
as §1, §2
as §3, with “expressing human” for “expressing rat”, “of 5” for “of 20”, “for human” for “for rat”, “After 90” for “After 45”, “concentrations (0.01” for “concentrations of displacing ligands selected from the range of 0.01”, “10 μM) of displacing ligands.” for “10 μM.”

The mark [3] stands for this setting: competition with 0.5 nM [3H]CP-55,940, HEK293 membranes expressing rat CB2, read-out: rat CB2 binding (Ki).

Like-named read-outs stand apart in the source and are kept apart here.

T2 sequence (P34972 whole entry): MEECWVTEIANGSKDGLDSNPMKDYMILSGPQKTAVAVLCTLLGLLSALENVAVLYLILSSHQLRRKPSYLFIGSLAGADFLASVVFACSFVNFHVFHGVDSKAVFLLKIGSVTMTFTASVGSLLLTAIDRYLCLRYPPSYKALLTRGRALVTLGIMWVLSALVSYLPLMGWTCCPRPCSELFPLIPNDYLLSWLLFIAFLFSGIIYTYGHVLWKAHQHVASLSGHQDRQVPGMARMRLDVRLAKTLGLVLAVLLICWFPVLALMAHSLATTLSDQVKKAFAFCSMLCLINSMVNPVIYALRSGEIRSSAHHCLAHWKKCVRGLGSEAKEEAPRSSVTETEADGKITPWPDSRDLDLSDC

As a reminder, the Ki is the dissociation constant of the complex between target and ligand, obtained from inhibition or displacement. As to `CCCCn1/c(=N/C(=O)c2cc(C(F)(F)F)ccc2CCC(C)(C)O)cc(C(C)(C)C)n1C` [Example 1, N-[(3E)-2-butyl-5-tert-butyl-1-methyl-1,2-dihydro-3H-pyrazol-3-ylidene]-2-(3-hydroxy-3-methylbutyl)-5-(trifluoromethyl)benzamide], the Ki in experiment [1] (setting [3]) was 102 nM; in experiment [2] (competition with 0.5 nM [3H]CP-55,940, HEK293 membranes expressing human CB2, read-out: human CB2 binding (Ki)) it was 133 nM.
`CCCCCn1/c(=N/C(=O)c2cc(C(F)(F)F)ccc2CCC(C)(C)O)cc(C(C)(C)C)n1C` [Example 2, N-[(3E)-5-tert-butyl-1-methyl-2-pentyl-1,2-dihydro-3H-pyrazol-3-ylidene]-2-(3-hydroxy-3-methylbutyl)-5-(trifluoromethyl)benzamide]: the Ki was found to be 25 nM in experiment [1] and 32.2 nM in experiment [2].
On the same counts, the results for `Cn1c(C(C)(C)C)c/c(=N\C(=O)c2cc(C(F)(F)F)ccc2/C=C/C(C)(C)O)n1CC1CC1` [Example 3, N-[(3E)-5-tert-butyl-2-(cyclopropylmethyl)-1-methyl-1,2-dihydro-3H-pyrazol-3-ylidene]-2-[(1E)-3-hydroxy-3-methylbut-1-enyl]-5-(trifluoromethyl)benzamide] are 37.2 nM and 41.7 nM.
With `Cn1c(C(C)(C)C)c/c(=N\C(=O)c2cc(C(F)(F)F)ccc2CCC(C)(C)O)n1CC1CC1` [Example 4, N-[(3E)-5-tert-butyl-2-(cyclopropylmethyl)-1-methyl-1,2-dihydro-3H-pyrazol-3-ylidene]-2-(3-hydroxy-3-methylbutyl)-5-(trifluoromethyl)benzamide], the Ki in experiment [1] amounted to 121 nM; in experiment [2], 151 nM.
On the same counts, the results for `CCCn1/c(=N/C(=O)c2cc(C(F)(F)F)ccc2/C=C/C(C)(C)O)cc(C(C)(C)C)n1C` [Example 5, N-[(3E)-5-tert-butyl-1-methyl-2-propyl-1,2-dihydro-3H-pyrazol-3-ylidene]-2-[(1E)-3-hydroxy-3-methylbut-1-enyl]-5-(trifluoromethyl)benzamide] are 89.6 nM and 277 nM.
In the case of `Cn1c(C(C)(C)C)c/c(=N\C(=O)c2cc(C(F)(F)F)ccc2/C=C/C(C)(C)O)n1CC1CCC1` [Example 6, N-[(3E)-5-tert-butyl-2-(cyclobutylmethyl)-1-methyl-1,2-dihydro-3H-pyrazol-3-ylidene]-2-[(1E)-3-hydroxy-3-methylbut-1-enyl]-5-(trifluoromethyl)benzamide], the Ki in experiment [1] was 3.29 nM; in experiment [2], 10.9 nM.
For the compound `Cn1c(C(C)(C)C)c/c(=N\C(=O)c2cc(C(F)(F)F)ccc2CCC(C)(C)O)n1CC1CCC1` [Example 7, N-[(3E)-5-tert-butyl-2-(cyclobutylmethyl)-1-methyl-1,2-dihydro-3H-pyrazol-3-ylidene]-2-(3-hydroxy-3-methylbutyl)-5-(trifluoromethyl)benzamide], the Ki in experiment [1] was 17.2 nM; in experiment [2], 20.8 nM.
Regarding `Cn1c(C(C)(C)C)c/c(=N\C(=O)c2cc(C(F)(F)F)ccc2CN2CC(O)C2)n1CC1CC1` [Example 9, N-[(3E)-5-tert-butyl-2-(cyclopropylmethyl)-1-methyl-1,2-dihydro-3H-pyrazol-3-ylidene]-2-[(3-hydroxyazetidin-1-yl)methyl]-5-(trifluoromethyl)benzamide], the Ki in experiment [1] amounted to 24.8 nM; in experiment [2], 30.1 nM.
As to `CCCCn1/c(=N/C(=O)c2cc(C(F)(F)F)ccc2CN2CC[C@@H](O)C2)cc(C(C)(C)C)n1C` [Example 13, N-[(3E)-2-butyl-5-tert-butyl-1-methyl-1,2-dihydro-3H-pyrazol-3-ylidene]-2-{[(3R)-3-hydroxypyrrolidin-1-yl]methyl}-5-(trifluoromethyl)benzamide], the Ki in experiment [1] (setting [3]) turned out to be 453 nM.
In the case of `COCCCn1/c(=N/C(=O)c2cc(C(F)(F)F)ccc2CCC(C)(C)O)cc(C(C)(C)C)n1C` [Example 15, N-[(3E)-5-tert-butyl-2-(3-methoxypropyl)-1-methyl-1,2-dihydro-3H-pyrazol-3-ylidene]-2-(3-hydroxy-3-methylbutyl)-5-(trifluoromethyl)benzamide], the Ki in experiment [1] (setting [3]) amounted to 220 nM.

(Values after patent US8288428B2, “Compounds as cannabinoid receptor ligands” (Abbott Laboratories, priority 2009, dated 2012).)
